The text below walks through data of a melting point compilation (Tetko et al.; mined from patent text by program, amines drawn as free bases though some values may be those of a salt).

Each structure is given as a SMILES string.

The compound `O=C(c1ccc(Br)s1)c1c(F)c(F)cc(F)c1F` showed a melting point of 51 to 54 °C.
Compound `O=C(CCl)c1csc(C(=O)CCl)c1` registered a melting point of 154 to 155 °C.
With `O=C(O)Cc1nn(CC(=O)Nc2cc(C(F)(F)F)ccc2Br)c(=O)c2ccccc12`, the melting point lay within 200 to 202 °C.
The compound `CNC(=O)Oc1ccc(NC(=O)COC)c(C)c1` yielded a melting point of 130 to 132 °C.
In the case of `O=C(O)c1cn(-c2ccc(F)cc2)c2c(F)c(N3CC4=C(CNC4)C3)c(F)cc2c1=O` it was 195 to 198 °C.
With `C[C@@H](n1cnc2cc(Br)ccc2c1=O)[C@](O)(Cn1cncn1)c1ccc(F)cc1F`, the melting point was 109 to 112 °C.
`CN(C)C(=O)N(N=Cc1ccc(OC(F)(F)C(F)F)cc1)C(=N)NN=Cc1ccc(OC(F)(F)C(F)F)cc1` showed a melting point of 142 to 144 °C.
In the case of `Cc1nn(-c2cc(OC(C)C)c(Cl)cc2Cl)c(C)c1C` it was 56 to 58 °C.
Consider `Cc1c(C#N)oc2c(c1=O)COc1ccccc1-2`, for which the melting point was 179 to 181 °C.
`CC(=O)N1CC(Cc2ccccc2)OC1=O` (configuration not stated) gave a melting point of 90 °C.
As for `CC1=C(C)C(=O)C(C(C)c2ccc(CC(=O)O)cc2)=C(C)C1=O` (configuration not stated), the melting point lay within 142 to 143 °C.
In turn, `CNC(=S)NCCSCc1[nH]cnc1C` registered a melting point of 150 to 152 °C.
In the case of `CCN(c1ccc(SC)cc1C#N)S(=O)(=O)c1ccc(C)cc1` it was 136 to 137 °C.
For `CC(C)(C)C(NC(=O)c1ccccc1)Nc1c(Nc2cccnc2)c(=O)c1=O` (configuration not stated) the value was 246 to 247 °C; for `N#Cc1c(C(N)=O)nn2c(-c3cccc(C(F)(F)F)c3)ccnc12`, 236 to 238 °C.
Turning to `COc1cc2c(c([N+](=O)[O-])c1O)C(=O)c1ccccc1C2=O`, the melting point is 296 to 297 °C.
For `O=C(c1ccc[nH]1)C1CCCCC1` the value was 83 to 84 °C; for `Cc1c(C)c2c(c(C)c1NC=O)OC(C)(C)C2=O`, 191 to 192 °C.
In the case of `COC(=O)[C@@H]1C[C@H](O[Si](C)(C)C)C(=O)[C@H]2[C@@]1(C)CC[C@H]1C(=O)O[C@H](c3ccoc3)C[C@]21C` it was 197 to 200 °C; in that of `O=C(O)C1CCN2c3ccccc3Cc3ccccc3C2C1` (configuration not stated), 207 to 209 °C; in that of `C[C@@H]1CCC[C@H](C)N1Cc1ccc2cc(NC(=O)c3ccc(-c4ccc(Cl)cc4)nc3)ccc2c1`, 229 to 230 °C.
As to `COCCOc1cc(OC)c2c(=O)[nH]c(-c3ccnc(C)c3)nc2c1`, the melting point fell in the range of 260 to 262 °C.
For `CCc1nc2c(N)nc3cc(Br)cnc3c2n1CC(C)(C)O` the value was 235 to 236 °C; for `CC1=C(C(=O)OC(C)C)C(c2cccc([N+](=O)[O-])c2)n2c(cc(=O)n2Cc2ccccc2)N1` (configuration not stated), 184 to 185 °C.
Regarding `Nc1cc2c(cc1Br)-c1cc(Br)c(N)cc1S2(=O)=O`, the melting point is over 355 °C.
In the case of `O=C(O)C[C@H](NC(=O)CNC(=O)c1csc(NC(=O)NCc2ccccn2)n1)C(=O)NCc1ccccn1` it was 164 °C; in that of `CN1CCN(Cc2ccccc2C(F)(F)F)C(C2=NCCN2)C1` (configuration not stated), 163 to 165 °C.
For `O=[N+]([O-])c1ccc(C2(Br)CCCCC2)cc1` the value was 83.5 to 85.5 °C; for `COc1ccc2[nH]c(CO)cc2c1C`, 133 to 135 °C.
For `CCOC(=O)c1ncc2[nH]c3cccc(CO)c3c2c1COC` the value was 139 to 140 °C.
Compound `N#Cc1cc(Cn2cncn2)cc(-c2ccccc2)c1` registered a melting point of 109 to 110 °C.
In the case of `CN(C(=O)Cc1cccc2[nH]ccc12)C1c2ccccc2CC1N1CCCC1` (configuration not stated) it was 202 to 204 °C; in that of `CCOC(=O)C(N)C=C(CCCCCCN)CP(=O)(O)O` (configuration not stated), 194 °C.
For `CCCn1c(=O)c2[nH]c(/C=C/c3ccc(C)c(C)c3)nc2n(CCC)c1=O` the value was 253 to 254 °C; for `CSC(C)(C(=O)O)c1ccc(N2C(=O)c3ccccc3C2=O)cc1` (configuration not stated), 202 to 204 °C; for `CCNC(=O)c1ccc(F)c(Cl)c1`, 102 °C.
In the case of `CC(C)(C)OC(=O)N1CCCc2onc(O)c2C1` it was 170 to 171 °C.
`Cc1cccc(Sc2c(O)cc(-c3ccccc3)oc2=O)c1` registered a melting point of 197 to 198 °C.
For `OC(Cc1ccc(F)cc1)(Cn1cncn1)c1ccccc1` (configuration not stated) the value was 116 to 118 °C; for `CCOC(=O)C1=Cc2cc(I)ccc2NC1C(F)(F)F` (configuration not stated), 137 to 138 °C; for `O=C(Nc1ccccc1)N1CCN=C1CSc1ccccc1`, 117 to 119 °C.
In the case of `COc1cc(N)c(Cl)cc1C(=O)N[C@H]1CCN(CCCN2C(=O)c3ccccc3C2=O)C[C@H]1OC` (relative stereo) it was 208 °C; in that of `C=CCc1cc2ccc(=O)oc2c(OC)c1OC(C)=O`, 101 to 102 °C.
On to `CCOC(=O)Cc1c(C)n(Cc2ccc(C(C)(C)C)cc2)c2ccc(OCc3csc(-c4ccccc4)n3)cc12`, for which the melting point was 119 to 120 °C.
For the compound `CCCCCc1ccc(OCC(=O)O)c(CCCCC)c1`, the melting point lay in the range of 115 to 120 °C.
Regarding `CC(C)(CCl)C(=O)C(Oc1ccc(-c2ccc(Cl)cc2)cc1)n1ccnc1` (configuration not stated), the melting point lay in the range of 97 to 99 °C.
Consider `COc1ccc(NC(=N)c2cccnc2)cc1`, for which the melting point was 137 to 139 °C.
Compound `CC(C)(C)c1cc(CN(c2cccnc2)S(=O)(=O)c2ccc([N+](=O)[O-])cc2)cc(C(C)(C)C)c1O` came in with a melting point of 159 to 160 °C.
For `CC(CO)(CO)Nc1nc(SCc2cccc(F)c2F)nc2nc(N)cnc12` the value was 220 to 227 °C.
Take `CCCc1c(OCCOCCOc2ccc3ccc(OCC(=O)O)cc3c2C(C)=O)ccc(C(C)=O)c1O`: the melting point is 121 to 122 °C.
Take `Cc1ccc(S(=O)C2CC3C(=O)C(c4ccc(F)cc4)=CC2N3C)cc1` (mixture of isomers): the melting point was found to be 186 °C.
In the case of `CC(C)(C)NCC(O)COc1cccc2nc[nH]c12` (configuration not stated) it was 203 to 205 °C; in that of `CNC(=O)n1nc(Oc2ncc(C(F)(F)F)cc2Cl)cc1C(F)(F)F`, 61 to 63 °C; in that of `CC1(C)Oc2ccc(C#N)cc2[C@@H](NC(=NC#N)Oc2ccccc2)[C@@H]1O` (relative stereo), 186 to 188 °C.
As for `Oc1cc(C(F)(F)F)nn1-c1ccc(Cl)cn1`, the melting point lay in the range of 58 to 59 °C.
In the case of `CCn1ncnc1COc1nn2c(-c3ccccc3F)nncc2c1-c1ccsc1`, the melting point lay in the range of 187 to 193 °C.
As to `Clc1ccc2c(c1)CN1C(=Nc3cccnc3)SC[C@@H]1C2`, the melting point turned out to be 125 °C.
`Cc1ccc(C(=O)OCCO)cc1-n1c(C)cc(OCc2ccc(F)cc2CNC(=O)Nc2cc(C(C)(C)C)nn2-c2cccc(OCCO)c2)c(Cl)c1=O` showed a melting point of 180 to 181 °C.
In the case of `Clc1cccc(-c2nc3cccc(NCc4ccccn4)c3o2)c1` it was 115 to 116 °C.
Turning to `C[C@H]1CC[C@H]2C(C)(C)[C@@H](O)CC[C@]23Oc2c(c(OCc4ccccc4)cc4c2CN(C(=O)OC(C)(C)C)C4=O)C[C@]13C`, the melting point lay in the range of 138 to 140 °C.
In the case of `O=S(=O)(Cc1c(C(F)(F)F)nn(-c2ccccc2)c1O)c1ccccc1` it was 122 to 123 °C; in that of `COC(=O)c1cc(Cl)c(-n2[nH]c(N)cc2=O)c(Cl)c1`, 225 to 229 °C.
With `CNC(=O)C(Cc1ccc(OC)cc1)NC(=O)C(C)(CC(C)C)c1ccc(OC)cc1SCc1ccc(OC)cc1` (configuration not stated), the melting point was in the range of 150 to 158 °C.
For `CC1CCc2ccc(O)cc2O1` (configuration not stated) the value was 94 to 95 °C; for `Cc1cc(Oc2c(Cl)cc(C(F)(F)F)cc2[N+](=O)[O-])nn1C(=O)OC(C)(C)C`, 119 to 121 °C.
In the case of `Cc1c(Br)c(=O)oc2nn(Cc3ccccc3Cl)c(C)c12` it was 206 to 208 °C; in that of `O=C(NCCO)C(O)C(Oc1ccccc1[N+](=O)[O-])c1ccccc1` (configuration not stated), 166 to 188 °C; in that of `Nc1nc2c(sc(=O)n2C2CC(O)C(CO)O2)c(=O)[nH]1` (configuration not stated), over 170 °C.
Consider `Cc1ccc(N2C(=O)N(CC(=O)Nc3c(C(C)C)cccc3C(C)C)C(=O)C23CCN(C(=O)OC(C)(C)C)CC3)cc1`, for which the melting point was 227 to 229 °C.
In the case of `CC1(C)OC(c2ccc(S(C)(=O)=O)cc2)=C(c2ccc(OC(F)(F)F)cc2)C1=O` it was 118 to 120 °C; in that of `COC(=O)c1cc(OP(=O)(OC)OC)c(C(=O)OC)s1`, 60 °C.
In the case of `Cc1cc(N)ccc1-c1ccc(-c2ccc(N)cc2C)o1` it was 174 to 176 °C; in that of `CCCCCCCCc1ccc2nc(-c3ccc(COC(CCCCCC)C(F)(F)F)cc3)sc2c1` (configuration not stated), 37.2 °C.
For `Cc1nn(-c2ccccn2)c2ncc(C(=O)N(C)c3ccccc3)c(OCc3ccccc3)c12` the value was 92 to 93 °C; for `CCCCCCCCCCCCCCOC(=O)c1ccc(Cl)c(NC(=O)C(C(=O)c2ccccc2)N2C(=O)c3ccccc3C2=O)c1` (configuration not stated), 81 to 82 °C.
`Clc1ncnc2c1ncn2C1CC=CC1` showed a melting point of 56 to 58 °C.
`N#Cc1cccc(-c2cncc(OC3SCC(O)C(O)C3O)c2)c1` (configuration not stated) displayed a melting point of 172 °C.
On to `CCOC(=O)CCC(O)c1ccc(-c2ccccc2F)cc1` (configuration not stated), for which the melting point is 61 to 62 °C.
In the case of `COc1cc2ncnc(Nc3cccc(Br)c3)c2cc1O` it was 299 °C; in that of `O=c1[nH]ncc2c(O)cccc12`, 351 to 355 °C.
`COC1CC(OC)(OC)C(=O)O1` (configuration not stated) had a melting point of 55 °C.
With `COc1cc(C(=O)NCCC2Cc3c(C)c(OCc4ccccc4)c(C)c(C)c3O2)cc(OC)c1OC` (racemic), the melting point was 171 to 173 °C.
Turning to `CCCc1c(-c2ccc(OC(F)F)c(OC3CC3)c2)[nH]c2cnn(COCC[Si](C)(C)C)c(=O)c12`, the melting point is 208 to 210 °C.
In the case of `Cc1ccc(-c2ccc(S(C)(=O)=O)cc2)n1-c1ccc(F)cc1` it was 110 to 112 °C.
The compound `CCCCCCCCCCCCCCOc1cccc(CC(=O)Nc2cccc(CO)c2)c1` registered a melting point of 86 to 90 °C.
`CCOC(=O)c1cn(CCCl)c2cc(Cl)c(F)cc2c1=O` returned a melting point of 222 °C.
`O=C(/C=C/c1ccc(S(=O)(=O)N2CCN(C(c3ccc(F)cc3)c3ccc(F)cc3)CC2)cc1)NO` returned a melting point of 125 to 126 °C.
